How the values were obtained:
Format in all cases: biochemical
[1] = molecular target: T1, Hordeum HPPD (SEQ ID: 2) (Hordeum vulgare, UniProt O48604, A164G/R146V/R147D/R148G); experiment: HPPD activity assay, Hordeum wild-type HPPD; settings: for tolerance index TI: not normalized
T1 construct: His (N); made in house; host or cells: E. coli BL21 (DE3)
Description: (§1) HPPD produces homogentisic acid and CO2 from 4-hydroxyphenylpyruvate (4-HPP) and O2. The activity assay for HPPD is based on the analysis of homogentisic acid by reversed phase HPLC.
(§2) The assay mixture can contain 150 mM potassium phosphate buffer pH 7.0, 50 mM L-ascorbic acid, 1 μM FeSO4 and 7 μg of purified enzyme in a total volume of 1 ml.
(§3) Inhibitors are dissolved in DMSO (dimethylsulfoxide) to a concentration of 20 mM or 0.5 mM, respectively. From this stock solution serial five-fold dilutions are prepared in DMSO, which are used in the assay. The respective inhibitor solution accounts for 1% of the assay volume. […] After a preincubation of 30 min the reaction is started by adding 4-HPP to a final concentration of 0.1 mM. The reaction is allowed to proceed for 120 min at room temperature. The reaction is stopped by addition of 100 μl of 4.5 M phosphoric acid.
(§4) Activities are normalized by setting the uninhibited enzyme activity to 100%. IC50 values are calculated using non-linear regression.
(§5) The assay mixture can contain 150 mM potassium phosphate buffer pH 7.0, 50 mM L-ascorbic acid, 100 μM Catalase (Sigma-Aldrich), 1 μM FeSO4 and 0.2 units of purified HPPD enzyme in a total volume of 505 μl. 1 unit is defined as the amount of enzyme that is required to produce 1 nmol of HGA per minute at 20° C.
(§6) Inhibitors are dissolved in DMSO (dimethylsulfoxide) to a concentration of 0.5 mM. From this stock solution serial five-fold dilutions are prepared in DMSO, which are used in the assay. The respective inhibitor solution accounts for 1% of the assay volume. […] Activities are normalized by setting the uninhibited enzyme activity to 100%. IC50 values are calculated using non-linear regression.
(§7) Using methods which are described in the above examples or well known in the art, purified, recombinant wildtype HPPD enzymes are characterized with respect to their kinetic properties and sensitivity towards HPPD inhibiting herbicides. Apparent michaelis constants (Km) and maximal reaction velocities (Vmax) are calculated by non-linear regression with the software GraphPad Prism 5 (GraphPad Software, La Jolla, USA) using a substrate inhibition model.
(§8) Field performance of the HPPD enzyme, which is used as a herbicide tolerance trait, may depend not only on its lack of sensitivity towards HPPD inhibiting herbicides but also on its activity. To assess the potential performance of a herbicide tolerance trait a tolerance index (TI) is calculated using the following formula: […]

[2] = molecular target: T2, Hordeum HPPD variant L334E (Hordeum vulgare, UniProt O48604, A164G/L334E/R146V/R147D/R148G); experiment: HPPD activity assay, Hordeum HPPD mutant L334E; settings: normalized on Hordeum wild-type HPPD
T2 construct: His (N); made in house; host or cells: E. coli BL21 (DE3)
T2 sequence (O48604 whole entry R146V/R147D/R148G/A164G/L334E): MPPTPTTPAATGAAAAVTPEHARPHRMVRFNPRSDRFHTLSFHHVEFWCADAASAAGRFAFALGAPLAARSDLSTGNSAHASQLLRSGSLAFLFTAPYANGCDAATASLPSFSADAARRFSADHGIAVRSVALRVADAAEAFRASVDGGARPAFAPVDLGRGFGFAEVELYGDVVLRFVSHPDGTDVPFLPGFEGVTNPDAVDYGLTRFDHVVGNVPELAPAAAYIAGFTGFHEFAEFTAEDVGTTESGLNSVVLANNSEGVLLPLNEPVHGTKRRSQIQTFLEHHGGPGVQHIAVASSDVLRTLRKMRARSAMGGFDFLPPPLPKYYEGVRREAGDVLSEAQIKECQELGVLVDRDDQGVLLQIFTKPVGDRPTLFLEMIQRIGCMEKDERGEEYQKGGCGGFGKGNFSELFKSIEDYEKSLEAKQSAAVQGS
Description: as §1, §2, §3, §4, §5, §6
(§9) Purified, mutant HPPD enzymes are obtained by the methods described above. Dose response and kinetic measurements are carried out using the described HPPD activity assay. Apparent michaelis constants (Km) and maximal reaction velocities (Vmax) are calculated by non-linear regression with the software GraphPad Prism 5 (GraphPad Software, La Jolla, USA) using a substrate inhibition model.
as §8, with “of the optimized HPPD enzyme,” for “of the HPPD enzyme,”, “herbicide tolerance trait may depend” for “herbicide tolerance trait, may depend”
(§10) Easy comparison and ranking of each trait is enabled by normalizing tolerance indexes on Arabidopsis or Hordeum wild-type HPPD.

[3] = molecular target: T3, Hordeum HPPD variant L320H, P321A (Hordeum vulgare, UniProt O48604, L320H/P321A); experiment: HPPD activity assay, Hordeum HPPD mutant L320H, P321A; settings: normalized on Hordeum wild-type HPPD
T3 construct: His (N); made in house; host or cells: E. coli BL21 (DE3)
T3 sequence (O48604 whole entry R146V/R147D/R148G/A164G/L320H/P321A): as the sequence (O48604 whole entry R146V/R147D/R148G/A164G/L334E) above, with L320H, P321A, E334L counted along it
Description: as §1, §2, §3, §4, §5, §6, §9
as §8, with “of the optimized HPPD enzyme,” for “of the HPPD enzyme,”, “herbicide tolerance trait may depend” for “herbicide tolerance trait, may depend”
as §10

[4] = molecular target: T4, Hordeum HPPD variant L353M, P321R, L320N (Hordeum vulgare, UniProt O48604, L320N/L353M/P321R); experiment: HPPD activity assay, Hordeum HPPD mutant L353M, P321R, L320N; settings: normalized on Hordeum wild-type HPPD
T4 construct: His (N); made in house; host or cells: E. coli BL21 (DE3)
T4 sequence (O48604 whole entry R146V/R147D/R148G/A164G/L320N/P321R/L353M): as the sequence (O48604 whole entry R146V/R147D/R148G/A164G/L334E) above, with L320N, P321R, E334L, L353M counted along it
Description: as §1, §2, §3, §4, §5, §6, §9
as §8, with “of the optimized HPPD enzyme,” for “of the HPPD enzyme,”, “herbicide tolerance trait may depend” for “herbicide tolerance trait, may depend”
as §10

[5] = molecular target: T5, Arabidopsis HPPD (SEQ ID: 53) (Arabidopsis thaliana, UniProt P93836); experiment: HPPD activity assay, Arabidopsis wild-type HPPD; parameters: key to Normalized tolerance index TI: tolerance index relative to Arabidopsis wild-type HPPD (= 1); settings: for Normalized tolerance index TI: normalized on Arabidopsis wild-type HPPD; for tolerance index TI: not normalized
T5 construct: His6 (N); made in house; host or cells: E. coli BL21 (DE3)
T5 sequence (P93836 1-445): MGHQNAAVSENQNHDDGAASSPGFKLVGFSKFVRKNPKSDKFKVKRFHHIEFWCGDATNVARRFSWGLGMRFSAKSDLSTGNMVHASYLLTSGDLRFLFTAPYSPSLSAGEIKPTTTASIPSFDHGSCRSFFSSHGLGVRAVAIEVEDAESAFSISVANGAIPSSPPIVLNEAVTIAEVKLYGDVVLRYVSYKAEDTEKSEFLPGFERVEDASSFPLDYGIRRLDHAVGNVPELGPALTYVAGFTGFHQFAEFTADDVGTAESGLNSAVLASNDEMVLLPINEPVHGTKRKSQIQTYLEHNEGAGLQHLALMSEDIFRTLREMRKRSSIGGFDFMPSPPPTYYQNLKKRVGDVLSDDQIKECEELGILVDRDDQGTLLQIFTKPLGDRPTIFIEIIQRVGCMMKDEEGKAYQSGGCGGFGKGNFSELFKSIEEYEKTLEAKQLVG
Description: as §1, §2, §3, §4, §5, §6, §7, §8
Easy comparison and ranking of each trait is enabled by normalizing tolerance indexes on Arabidopsis wild-type HPPD.

[6] = molecular target: T6, Hordeum HPPD variant L320H (Hordeum vulgare, UniProt O48604, A164G/L320H/R146V/R147D/R148G); experiment: HPPD activity assay, Hordeum HPPD mutant L320H; settings: normalized on Hordeum wild-type HPPD
T6 construct: His (N); made in house; host or cells: E. coli BL21 (DE3)
T6 sequence (O48604 whole entry R146V/R147D/R148G/A164G/L320H): as the sequence (O48604 whole entry R146V/R147D/R148G/A164G/L334E) above, with L320H, E334L counted along it
Description: as §1, §2, §3, §4, §5
Inhibitors are dissolved in DMSO (dimethylsulfoxide) to a concentration of 0.5 mM. […] IC50 values are calculated using non-linear regression.
Purified, mutant HPPD enzymes are obtained by the methods described above. […] Apparent michaelis constants (Km) and maximal reaction velocities (Vmax) are calculated by non-linear regression with the software GraphPad Prism 5 (GraphPad Software, La Jolla, USA) using a substrate inhibition model.
as §8, with “of the optimized HPPD enzyme,” for “of the HPPD enzyme,”, “herbicide tolerance trait may depend” for “herbicide tolerance trait, may depend”

[7] = molecular target: T7, Hordeum HPPD variant L353M, P321R, V212I, L334E (Hordeum vulgare, UniProt O48604, L334E/L353M/P321R/V212I); experiment: HPPD activity assay, Hordeum HPPD mutant L353M, P321R, V212I, L334E; settings: normalized on Hordeum wild-type HPPD
T7 construct: His (N); made in house; host or cells: E. coli BL21 (DE3)
T7 sequence (O48604 whole entry R146V/R147D/R148G/A164G/V212I/P321R/L334E/L353M): as the sequence (O48604 whole entry R146V/R147D/R148G/A164G/L334E) above, with V212I, P321R, L353M counted along it
Description: as §1, §2, §3, §4, §5, §6, §9
as §8, with “of the optimized HPPD enzyme,” for “of the HPPD enzyme,”, “herbicide tolerance trait may depend” for “herbicide tolerance trait, may depend”
as §10

[8] = molecular target: T8, Hordeum HPPD variant L320N (Hordeum vulgare, UniProt O48604, A164G/L320N/R146V/R147D/R148G); experiment: HPPD activity assay, Hordeum HPPD mutant L320N; settings: normalized on Hordeum wild-type HPPD
T8 construct: His (N); made in house; host or cells: E. coli BL21 (DE3)
T8 sequence (O48604 whole entry R146V/R147D/R148G/A164G/L320N): as the sequence (O48604 whole entry R146V/R147D/R148G/A164G/L334E) above, with L320N, E334L counted along it
Description: as §1, §2, §3, §4, §5, §6, §9
as §8, with “of the optimized HPPD enzyme,” for “of the HPPD enzyme,”, “herbicide tolerance trait may depend” for “herbicide tolerance trait, may depend”
as §10

[9] = molecular target: T9, Hordeum HPPD variant L353M, P321R, V212I (Hordeum vulgare, UniProt O48604, L353M/P321R/V212I); experiment: HPPD activity assay, Hordeum HPPD mutant L353M, P321R, V212I; settings: normalized on Hordeum wild-type HPPD
T9 construct: His (N); made in house; host or cells: E. coli BL21 (DE3)
T9 sequence (O48604 whole entry R146V/R147D/R148G/A164G/V212I/P321R/L353M): as the sequence (O48604 whole entry R146V/R147D/R148G/A164G/L334E) above, with V212I, P321R, E334L, L353M counted along it
Description: as §1, §2, §3, §4, §5, §6, §9
as §8, with “of the optimized HPPD enzyme,” for “of the HPPD enzyme,”, “herbicide tolerance trait may depend” for “herbicide tolerance trait, may depend”
as §10

[10] = Hordeum HPPD Wildtype, normalized on Hordeum wild-type HPPD
[11] = Hordeum HPPD, normalized on Arabidopsis wild-type HPPD
[12] = Arabidopsis HPPD Wildtype, Table 15

T1 sequence (O48604 whole entry R146V/R147D/R148G/A164G): as the sequence (O48604 whole entry R146V/R147D/R148G/A164G/L334E) above, with E334L counted along it

SMILES	Normalized tolerance index TI [1, 10]	Normalized tolerance index TI [1, 11]	Normalized tolerance index TI [2]	Normalized tolerance index TI [3]	Normalized tolerance index TI [4]	Normalized tolerance index TI [5, 12]	Normalized tolerance index TI ([5]; Arabidopsis HPPD, Table 12)	Normalized tolerance index TI [6]	Normalized tolerance index TI [7]	Normalized tolerance index TI [8]	Normalized tolerance index TI [9]	Ki [1] [nM]	tolerance index TI ([1]; Hordeum HPPD)	Ki [5] [nM]	tolerance index TI ([5]; Arabidopsis HPPD)
COCCOCc1c(Cl)ccc(C2=C(O)c3ncccc3C(C)(C)S2(=O)=O)c1Cl [Inhibitor 3, 7-[2,4-dichloro-3-(2-methoxyethoxymethyl)phenyl]-5,5-dimethyl-6,6-dioxo-thiopyrano[4,3-b]pyridin-8-ol]	1	0	1.5	4.8	1.9	1	1	7.4	2.1	1.9	1.9	–	–	–	–
CC1(C)c2cccnc2C(O)=C(c2ccc(Cl)nc2Cl)S1(=O)=O [Inhibitor 2, 7-(2,6-dichloro-3-pyridyl)-5,5-dimethyl-6,6-dioxo-thiopyrano[4,3-b]pyridin-8-ol]	1	0.5	1.4	2.5	1.4	1	1	2.7	1.9	1.7	1.5	4.9	2.2E−3	4.2	4E−3
CC1=NOC(c2c(Cl)ccc(C3=C(O)c4ncccc4C(C)(C)S3(=O)=O)c2Cl)C1 (centres unmarked) [Inhibitor 1, 7-[2,4-dichloro-3-(3-methyl-4,5-dihydroisoxazol-5-yl)phenyl]-5,5-dimethyl-6,6-dioxo-thiopyrano[4,3-b]pyridin-8-ol]	1	0.7	1.5	5.2	2.1	1	1	8.5	2.2	2	2.2	6.6	2.9E−3	4.1	4E−3

Source: patent publication US20140357487A1, “PLANTS HAVING INCREASED TOLERANCE TO HERBICIDES” (BASF SE, priority 2011, published 2014)
